The values that follow come from patent publication US10617680B2 (CELGENE QUANTICEL RESEARCH, INC., priority 2017, dated 2020).

Chain of CBP (Q92793 1081-1197): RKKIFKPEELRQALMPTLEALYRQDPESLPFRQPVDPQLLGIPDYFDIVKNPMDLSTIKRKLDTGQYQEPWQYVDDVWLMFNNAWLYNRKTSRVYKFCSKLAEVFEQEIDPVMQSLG

In the experiment the target is CBP (Homo sapiens (Human), UniProt Q92793). In words: In vitro CBP inhibition (AlphaScreen, biotinylated H4-tetraacetyl peptide). In kind it is binding. The settings on record: AlphaScreen, Table 29; read-out: CBP IC50. Summed up:
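His-tagged CBP expressed in E. coli (50 nM final) incubated with biotinylated H4K5/8/12/16(Ac) peptide (20 nM final) in 50 mM HEPES pH 7.3, 10 mM NaCl, 0.25 mM TCEP, 0.1% BSA, 0.005% Brij-35, 0.4% DMSO, 20 min at room temp.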
On the technique in general: Bead proximity is the source of the signal in Alpha formats.
Regarding `Cn1cc(-c2cnn(CCN3CCOCC3)c2)c(-c2ccccc2)cc1=O` [Example 130, 1-methyl-5-(1-(2-morpho-linoethyl)-1H-pyrazol-4-yl)-4-phenylpyridin-2(1H)-one], the IC50 (in general, the concentration that inhibits the measured activity by half) was under 500 nM.
As to `Cn1cc(-c2cnn(Cc3ccccc3)c2)c(-c2ccccn2)cc1=O` [Example 131, 5′-(1-benzyl-1H-pyrazol-4-yl)-1′-methyl-[2,4′-bipyridin]-2′(1′H)-one], the IC50 was in the range of 500 to 5000 nM.
`CCn1cc(-c2cn(C)c(=O)cc2-c2ccccc2)cn1` [Example 132, 5-(1-ethyl-1H-pyrazol-4-yl)-1-methyl-4-phenylpyridin-2(1H)-one]: the half-inhibitory concentration (IC50) is under 500 nM.
Regarding `Cn1cc(-c2cn[nH]c2)c(-c2ccccc2)cc1=O` [Example 133, 1-methyl-4-phenyl-5-(1H-pyrazol-4-yl)pyridin-2(1H)-one], the IC50 was under 500 nM.
With `CN(C)C(=O)Cn1cc(-c2cn(C)c(=O)cc2-c2ccccc2)cn1` [Example 135, N,N-dimethyl-2-(4-(1-methyl-6-oxo-4-phenyl-1,6-dihydropyridin-3-yl)-1H-pyrazol-1-yl)acetamide], the IC50 was under 500 nM.
For the molecule `Cc1nn(C)cc1-c1cn(C)c(=O)cc1-c1ccccc1` [Example 136, 5-(1,3-dimethyl-1H-pyrazol-4-yl)-1-methyl-4-phenylpyridin-2(1H)-one], the IC50 is under 500 nM.
As for `CC(C)Cn1cc(-c2cn(C)c(=O)cc2-c2ccccc2)cn1` [Example 137, 5-(1-isobutyl-1H-pyrazol-4-yl)-1-methyl-4-phenylpyridin-2(1H)-one], the IC50 was under 500 nM.
The same measure for `CC(C)n1cc(-c2cn(C)c(=O)cc2-c2ccccc2)cn1` [Example 138, 5-(1-isopropyl-1H-pyrazol-4-yl)-1-methyl-4-phenylpyridin-2(1H)-one]: under 500 nM; for `CCCn1cc(-c2cn(C)c(=O)cc2-c2ccccc2)cn1` [Example 139, 1-methyl-4-phenyl-5-(1-propyl-1H-pyrazol-4-yl)pyridin-2(1H)-one]: under 500 nM.
As for `COC(=O)Cn1cc(-c2cn(C)c(=O)cc2-c2ccccc2)cn1` [Example 140, methyl 2-(4-(1-methyl-6-oxo-4-phenyl-1,6-dihydropyridin-3-yl)-1H-pyrazol-1-yl)acetate], the 50% inhibitory concentration (IC50) is under 500 nM.
Regarding `CCCNC(=O)Cn1cc(-c2cn(C)c(=O)cc2-c2ccccc2)cn1` [Example 141, 2-(4-(1-methyl-6-oxo-4-phenyl-1,6-dihydro-pyridin-3-yl)-1H-pyrazol-1-yl)-N-propylacetamide], the IC50 was under 500 nM.
As for `Cn1cc(-c2cn(C)c(=O)cc2C2CCCC2)cn1` [Example 142, 4-cyclopentyl-1-methyl-5-(1-methyl-1H-pyrazol-4-yl) pyridin-2(1H)-one], the IC50 lay in the range of 500 to 5000 nM.
In the case of `Cn1cc(-c2cn(C)c(=O)cc2C2CCCCC2)cn1` [Example 143, 4-cyclohexyl-1-methyl-5-(1-methyl-1H-pyrazol-4-yl)pyridin-2 (1H)-one], the IC50 lay within 500 to 5000 nM.
For `Cn1cc(-c2cn(C)c(=O)cc2C2CC2)cn1` [Example 144, 4-cyclopropyl-1-methyl-5-(1-methyl-1H-pyrazol-4-yl) pyridin-2(1H)-one], the IC50 is under 500 nM.
`Cc1nn(C)c(C)c1-c1cn(C)c(=O)cc1-c1ccccc1` [Example 145, 1-methyl-4-phenyl-5-(1,3,5-tri-methyl-1H-pyrazol-4-yl) pyridin-2(1H)-one]: the IC50 is 500 to 5000 nM.
As for `Cn1cc(-c2cnn(CC3CC3)c2)c(-c2ccccc2)cc1=O` [Example 146, 5-(1-(cyclopropyl-methyl)-1H-pyrazol-4-yl)-1-methyl-4-phenyl-pyridin-2(1H)-one], the IC50 was under 500 nM.
Regarding `Cn1cc(-c2cnn(Cc3ccccc3)c2)c(-c2ccc(F)cc2)cc1=O` [Example 149, 5-(1-benzyl-1H-pyrazol-4-yl)-4-(4-fluorophenyl)-1-methyl-pyridin-2(1H)-one], the concentration for half-maximal inhibition (IC50) is under 500 nM.
